Source: publication PMC5891061, “Electrophysiological mechanisms of vandetanib-induced cardiotoxicity: Comparison of action potentials in rabbit Purkinje fibers and pluripotent stem cell-derived cardiomyocytes” (PLoS ONE, 2018)

Tests used:
KCNJ2 (IK1) = target: T1, KCNJ2 (IK1) (Homo sapiens, UniProt P63252); test: cell-based
T1 sequence (P63252 1-427): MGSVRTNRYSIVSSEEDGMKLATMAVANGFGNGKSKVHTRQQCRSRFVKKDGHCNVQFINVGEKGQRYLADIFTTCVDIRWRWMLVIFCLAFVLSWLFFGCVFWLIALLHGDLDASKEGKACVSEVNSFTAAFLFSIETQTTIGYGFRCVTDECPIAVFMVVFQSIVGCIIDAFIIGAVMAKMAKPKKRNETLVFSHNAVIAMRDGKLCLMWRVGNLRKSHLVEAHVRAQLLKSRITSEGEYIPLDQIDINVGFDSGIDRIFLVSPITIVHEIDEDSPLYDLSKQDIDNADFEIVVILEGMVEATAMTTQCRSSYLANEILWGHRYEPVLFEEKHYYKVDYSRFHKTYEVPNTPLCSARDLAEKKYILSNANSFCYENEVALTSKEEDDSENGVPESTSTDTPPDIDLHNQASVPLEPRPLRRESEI
Text: (§1) For various aspects of cardiac ion channel study, human embryonic kidney (HEK293; ATCC, Manassas, VA, USA) cells were transiently transfected using lipofectAmin2000 (Gibco BRL, New York, NY, USA) according to the manufacturer’s instructions. The hERG (human ether-ago-go-related gene corresponding to IKr), KCNQ1/KCNE1 (the gene corresponding to IKs), KCNJ2 (the gene corresponding to IK1) or SCN5A (the gene corresponding to INa) cDNA was co-transfected with green fluorescence protein, the surface marker protein, to allow assessment of the transfection efficiency. For the calcium current, enzymatically isolated single rat ventricular myocytes were used. Briefly, the hearts were rapidly excised from anaesthetized Sprague–Dawley rats (250–350 g) and perfused via the aorta on a Langendorff apparatus with an oxygenated normal Tyrode (NT) solution for 5 min. […]
(§2) The external solution for recording the IhERG, IKs and INa channel currents was NT solution. […] The calcium current was measured in naïve rat ventricular myocytes, cells were superfused with an external solution that consisted of (in mM): 137 choline-Cl, 5 CsCl, 0.5 MgCl2, 2 4-AP, 10 HEPES, 10 glucose and 1.8 CaCl2 (pH 7.4 with NaOH), whereas the intracellular solution used to fill the pipette had the following ionic solution (in mM): 20 CsCl, 100 Cs-aspartate, 10 EGTA, 10 HEPES, 20 TEA-Cl, 5 Mg-ATP (pH 7.25 with KOH). […]

hERG (IKr) = hERG (IKr) (Homo sapiens, UniProt Q12809); test: Whole-cell patch clamp, IhERG tail current in transfected HEK293 cells
Sequence of hERG (IKr) (Q12809 whole entry, the tested form may be a part): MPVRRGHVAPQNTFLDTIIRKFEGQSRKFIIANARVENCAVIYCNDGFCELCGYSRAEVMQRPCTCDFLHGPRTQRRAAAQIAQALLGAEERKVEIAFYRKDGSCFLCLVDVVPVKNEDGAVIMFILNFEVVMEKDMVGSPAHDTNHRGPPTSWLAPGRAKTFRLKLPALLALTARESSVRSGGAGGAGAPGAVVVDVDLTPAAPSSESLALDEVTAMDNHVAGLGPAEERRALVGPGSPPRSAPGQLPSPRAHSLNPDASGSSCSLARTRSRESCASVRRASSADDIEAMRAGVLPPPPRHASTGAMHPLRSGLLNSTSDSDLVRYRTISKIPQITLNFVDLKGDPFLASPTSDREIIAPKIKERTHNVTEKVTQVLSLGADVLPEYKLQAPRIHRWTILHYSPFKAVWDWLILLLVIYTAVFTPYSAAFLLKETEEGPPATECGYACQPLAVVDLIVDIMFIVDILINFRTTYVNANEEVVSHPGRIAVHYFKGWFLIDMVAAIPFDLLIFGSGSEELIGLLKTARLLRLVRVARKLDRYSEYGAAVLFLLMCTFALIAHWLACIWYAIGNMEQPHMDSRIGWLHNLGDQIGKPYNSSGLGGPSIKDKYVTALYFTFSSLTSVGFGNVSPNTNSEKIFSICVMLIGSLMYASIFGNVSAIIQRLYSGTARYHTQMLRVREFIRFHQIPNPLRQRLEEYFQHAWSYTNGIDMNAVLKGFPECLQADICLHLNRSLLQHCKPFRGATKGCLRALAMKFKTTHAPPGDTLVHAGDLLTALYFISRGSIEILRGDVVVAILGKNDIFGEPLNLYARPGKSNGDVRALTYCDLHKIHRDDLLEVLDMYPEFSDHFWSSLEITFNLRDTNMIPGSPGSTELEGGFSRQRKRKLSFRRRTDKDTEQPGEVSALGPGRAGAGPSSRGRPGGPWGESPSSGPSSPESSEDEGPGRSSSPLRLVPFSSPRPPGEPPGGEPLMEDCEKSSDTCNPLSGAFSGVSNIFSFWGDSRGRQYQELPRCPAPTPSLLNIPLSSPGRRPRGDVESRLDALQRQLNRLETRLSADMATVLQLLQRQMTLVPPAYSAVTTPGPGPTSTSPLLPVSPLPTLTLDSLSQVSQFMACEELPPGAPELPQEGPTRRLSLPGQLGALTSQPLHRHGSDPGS
Text: as §1, with “min. To clear the blood, then perfused with Ca^2+-free normal Tyrode solution for 3 min.” for “min.”
as §2
pCLAMP (Axon Instruments, Foster City, CA, USA), Origin 8 (OriginLab Corp, Northampton, MA, USA), and Excel (Microsoft, Redmond, WA, USA) were used for data acquisition and analysis. The concentration–response relationships for drug-induced blockage were calculated using SigmaPlot (Systat Software, San Jose, CA, USA). […] Statistical significance was determined using the Student’s t-test and one-way ANOVA with post hoc testing using Dunnett’s method; p < 0.05 was considered to indicate statistical significance. […]

IC50 (KCNJ2 (IK1)): 94.5 ± 4.57 µM
SMILES: COc1cc2c(Nc3ccc(Br)cc3F)ncnc2cc1OCC1CCN(C)CC1 [Vandetanib]
Reduction of IhERG current amplitude (hERG (IKr); 0.3 μM): 17.04% | Reduction of IhERG current amplitude (hERG (IKr); 1 μM): 45.32% | Reduction of IhERG current amplitude (hERG (IKr); 3 μM): 76.05%
